Tests used:
KDR = KDR (Homo sapiens, UniProt P35968); experiment: Enzyme assay for EGFR2 (KDR); type: biochemical; details: 50 nM KDR; 500 μM ATP
Protocol: Enzyme assays for IC50 determinations were performed in 96-well titer plates, in a total reaction volume of 50 μL. Each reaction contained 1.5 μL of appropriate dilutions of inhibitor, 50 mM Hepes, pH 7.4, 1 mM DTT, 10 mM magnesium chloride, 2 mM phospho-poly(E4Y) (Sigma Chemical Company), 500 μM unlabeled ATP, 0.0025 μM [^33P]ATP (Amersham Pharmacia Biotech), and 50 nM KDR. All components except KDR were added to the wells, and the reaction was started by the addition of the enzyme. The reactions were mixed and incubated at room temperature for 1 hr, after which the reactions were quenched by the addition of 50 μL of 8% phosphoric acid. At this point, 90 μL aliquots of the samples were applied to positively charged DEAE 96-well filter plates (Millipore Corporation MADENOB10). The plates were incubated for 30 min at room temperature. The samples were aspirated and the wells were washed 3 times with 200 μL of 0.5% phosphoric acid. To each well, 50 μL of scintillation cocktail was added and counted for 60 sec in a TopCount microplate scintillation counter (Packard Instrument Company). The concentration of a compound that inhibited the activity of KDR by 50% (IC50) was determined based its inhibition curve.

CDK5 complexed with p25 = CDK5 complexed with p25 (Homo sapiens, UniProt Q00535); experiment: Cyclin dependent kinase activity assay (33P peptide phosphorylation); type: biochemical; details: 0.1 mM ATP, read-out: CDK 5 Activity*
Protocol: (§1) The assay of cyclin dependent kinase activity was determined by monitoring the phosphorylation of a synthetic peptide, PKTPKKAKKLRRR. The assay mixture contained 0.1 mM cold ATP, ^33P-γ-ATP (2000-4000 cpm/μL), 0.1 mM peptide, 1 mM DDt, and 10 mM MgCl2 in 100 mM HEPES buffer pH 7.4. The assay mixture, along with inhibitor and CDK enzyme (0.3-0.4 U/mL; either CDK5 complexed with p25, CDK2 complexed with complexed with cyclin A), was mixed together in a microtiter plate in a final volume of 40 μL, sealed and incubated for 2 hours at 30° C. Following incubation, a 15 μL aliquot was added to a Whatman P81 filtration plate containing 100 μL 0.5% phosphoric acid. This mixture was allowed to stand for 5 minutes prior to filtration on a vacuum manifold. The filter plate was washed with 5 successive additions of 300 μL 0.5% phosphoric acid. The filtration plate was air dried for 10 minutes before sealing the bottom. After addition of scintillation fluid to the sealed plate, phosphorylated peptide was quantified in a scintillation counter.

A549/ATCC = experiment: In vitro tumor cell efficacy test (SRB cell viability); type: cell-based; details: Homo sapiens, Non-Small Cell Lung Cancer, 72 hours
panel of protein kinases = experiment: Specificity studies, summary in words; type: biochemical; details: against a panel of protein kinases
Protocol: The assays of kinases were determined by monitoring the phosphorylation of appropriate substrates. The assay mixture contained 0.1 mM cold ATP ^33P-γ-ATP (2000-4000 cpm/μL), 0.1 mM substrate, 1 mM DTT, and 10 mM MgCl2 in 100 mM HEPES buffer pH 7.4. The assay mixture, along with inhibitor and kinase enzyme (0.3-0.4 U/mL), was mixed together in a microtiter 96-well plate in a final volume of 40 μL, sealed and incbated for 1 hour at 30° C. Following incubation, a 15 μL aliquot was added to a Whatman P81 filtration plate containing 100 μL 0.5% phosphoric acid. This mixture was allowed to stand for 5 minutes prior to filtration on a vacuum manifold. The filter plate was washed with 5 successive additions of 300 μL 0.5% phosporic acid. The filtration plate was air dried for 10 minutes before sealing the bottom. After addition of scintillation fluid to the sealed plate, phosphorylated substrate was quantified in a scintillation counter.

[1] = biological target: CDK2 complexed with cyclin A (Homo sapiens, UniProt P24941); experiment: Cyclin dependent kinase activity assay (33P peptide phosphorylation); type: biochemical; details: 0.1 mM ATP, read-out: CDK 2 Activity*
Protocol: as §1

Chain of CDK5 complexed with p25 (Q00535 whole entry): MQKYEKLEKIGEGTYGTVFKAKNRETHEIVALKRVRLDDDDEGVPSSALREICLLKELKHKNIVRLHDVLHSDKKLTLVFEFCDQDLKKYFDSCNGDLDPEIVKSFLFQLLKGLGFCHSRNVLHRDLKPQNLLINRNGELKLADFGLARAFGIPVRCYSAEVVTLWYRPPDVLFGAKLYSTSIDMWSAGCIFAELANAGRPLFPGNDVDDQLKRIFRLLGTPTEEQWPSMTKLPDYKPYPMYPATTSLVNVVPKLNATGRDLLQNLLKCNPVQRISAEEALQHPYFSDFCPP
Chain of CDK5 complexed with p25 (Q15078 99-307 partner limits assumed): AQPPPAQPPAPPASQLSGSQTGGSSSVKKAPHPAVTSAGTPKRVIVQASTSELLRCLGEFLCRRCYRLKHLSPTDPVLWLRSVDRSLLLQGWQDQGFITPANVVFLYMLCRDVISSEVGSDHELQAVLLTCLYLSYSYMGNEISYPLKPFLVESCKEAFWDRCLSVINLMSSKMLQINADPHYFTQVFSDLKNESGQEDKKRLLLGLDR
Chain of KDR (P35968 20-1356, species assumed): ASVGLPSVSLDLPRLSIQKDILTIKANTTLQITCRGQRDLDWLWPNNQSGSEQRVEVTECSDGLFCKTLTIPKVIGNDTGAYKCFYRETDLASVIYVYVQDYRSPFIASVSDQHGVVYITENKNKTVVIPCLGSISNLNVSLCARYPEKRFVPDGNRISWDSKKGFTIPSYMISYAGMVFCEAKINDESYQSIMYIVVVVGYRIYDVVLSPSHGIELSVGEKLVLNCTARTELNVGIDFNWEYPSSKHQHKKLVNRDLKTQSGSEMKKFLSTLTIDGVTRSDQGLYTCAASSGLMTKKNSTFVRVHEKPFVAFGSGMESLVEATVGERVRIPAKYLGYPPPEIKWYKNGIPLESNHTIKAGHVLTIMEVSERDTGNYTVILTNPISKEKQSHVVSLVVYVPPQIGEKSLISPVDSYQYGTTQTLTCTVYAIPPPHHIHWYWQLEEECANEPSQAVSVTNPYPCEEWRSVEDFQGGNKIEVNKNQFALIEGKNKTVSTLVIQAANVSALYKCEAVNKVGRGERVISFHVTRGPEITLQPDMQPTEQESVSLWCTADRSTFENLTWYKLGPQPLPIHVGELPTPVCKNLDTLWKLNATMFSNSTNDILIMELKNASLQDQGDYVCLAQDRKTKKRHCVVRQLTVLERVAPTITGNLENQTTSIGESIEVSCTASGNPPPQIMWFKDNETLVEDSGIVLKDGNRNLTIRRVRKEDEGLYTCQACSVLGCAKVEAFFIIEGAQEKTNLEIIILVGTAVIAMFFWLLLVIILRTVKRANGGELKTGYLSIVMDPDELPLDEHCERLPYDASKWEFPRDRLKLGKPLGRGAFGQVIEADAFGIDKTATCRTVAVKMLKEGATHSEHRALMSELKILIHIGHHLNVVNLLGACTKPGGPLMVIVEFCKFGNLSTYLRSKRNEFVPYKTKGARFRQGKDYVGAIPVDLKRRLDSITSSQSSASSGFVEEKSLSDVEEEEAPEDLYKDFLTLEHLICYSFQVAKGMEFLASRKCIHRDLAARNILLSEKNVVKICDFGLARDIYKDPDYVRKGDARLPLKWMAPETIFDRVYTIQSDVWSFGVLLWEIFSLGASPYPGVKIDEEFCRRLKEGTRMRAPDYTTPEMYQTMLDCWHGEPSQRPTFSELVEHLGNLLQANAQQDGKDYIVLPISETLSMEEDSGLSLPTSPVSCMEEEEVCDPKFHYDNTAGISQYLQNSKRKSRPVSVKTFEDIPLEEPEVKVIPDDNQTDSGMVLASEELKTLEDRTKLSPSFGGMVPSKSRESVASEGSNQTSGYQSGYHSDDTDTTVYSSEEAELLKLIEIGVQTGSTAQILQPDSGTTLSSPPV

Row | Compound | IC50 (KDR) [nM] | IC50 (CDK5 complexed with p25) [nM] | LC50 (A549/ATCC) [nM] | specificity for CDK5 and CDK2 (panel of protein kinases) | IC50 [1] [nM]
1 | Nc1nc(-c2cc(-c3ccc(O)cc3)ccc2O)cc(N2CCCC2CO)n1 (stereo in doubt) [Example 79, 3-[2-Amino-6-(2R-hydroxymethyl-pyrrolidin-1-yl)-pyrimidin-4-yl]-biphenyl-4,4′-diol] | 1000 to 20000 | < 500 |  |  | 
2 | Nc1nccc(-c2cc(-c3ccc(O)cc3)ccc2O)n1 [3-(2-Amino-pyrimidin-4-yl)-biphenyl-4,4′-diol] |  |  | > 100000 | highly specific | 
3 | NC(=S)N/N=C/c1cc(-c2ccc(CO)cc2)ccc1O [Example 10, 5-(4-Hydroxymethylphenyl)salicylaldehyde Thiosemicarbazone] |  | 500 to 2000 |  |  | 2000 to 5000
4 | NC(=O)/C=C/c1ccc(O)c(/C=N/NC(N)=S)c1 [Example 39, 3-Formyl-4-hydroxycinnamide, Thiosemicarbazone] |  | > 5000 |  |  | 500 to 2000

From patent US20030208067A1, “Inhibitors of protein kinase for the treatment of disease” (priority 2001, published 2003)
